Test results: patent publication US4177271A, “Hydroxy- and oxo-substituted α-benzylidenylcycloalkanes” (Unicler, priority 1977, dated 1979)

How the values were obtained:
[1] = Acute toxicity (LD50), mice, intraperitoneal route, Log-Probits method of Miller and Tainter; format: in vivo; conditions: mouse, in vivo, ip
Protocol: (§1) The LD50 of the products was determined in mice by the intraperitoneal route according to the "Log-Probits" method of Miller and Tainter (Proc. Soc. Exptl. Biol. Med. 1944; 57, 261-264).

[2] = system: hexobarbital-induced narcosis; assay: Modification (potentialisation) of hexobarbital-induced narcosis in mice; format: in vivo; conditions: Mus musculus, sodium hexobarbital 70 mg/kg IP half an hour later, read-out: Narcosis potentialisation, T (percentage increase in sleep time induced by hexobarbital); for change in vivo at 10 mg/kg: 10 mg/kg IP; for change in vivo at 200 mg/kg: 200 mg/kg IP; for change in vivo at 100 mg/kg: 100 mg/kg IP
Protocol: (§2) This was investigated by observing the behaviour of the animal by studying the modification in hexobarbital-induced narcosis and antagonism vis-a-vis reserpine.
Mice, each weighing about 20 g, received intraperitoneally the product being investigated. Half an hour later sodium hexobarbital was injected by the same route at a dosage of 70 mg/kg.
The animals were placed on a hot plate maintained at a constant temperature of 27° C. Sleep is considered to have occurred as soon as a mouse, placed in the dorsal decubitus position, is incapable of turning over onto its paws.
The narcosis potentialisation is evaluated from the percentage increase in sleep time induced by hexobarbital (T).

mice = assay: Acute toxicity (LD50), mice, intraperitoneal route, Log-Probits method of Miller and Tainter; format: in vivo
Protocol: as §1

[3] = system: blepharospasm produced by reserpine; assay: Antagonism vis-a-vis reserpine (blepharospasm) in mice; format: in vivo, Swiss male mice; set-up: key: The inhibition of blepharospasm is recorded from 0 to +++; The inhibition of blepharospasm is recorded from 0 to +++; conditions: reserpine 5 mg/kg IP
Protocol: as §2
(Chen G., and Bohner B., (1961) J. pharmacol Exptl. Therap. 131, 179).
Reserpine when administered intraperitoneally to mice in a dosage of 5 mg/kg causes the eyelids to close more or less completely in the majority of animals. The administration of certain products will inhibit the blepharospasm produced by reserpine.
Swiss male mice are distributed into groups of 10 mice, and each experiment includes at least 3 groups:
a control group that receives only the solvent and reserpine
a group treated with a reference product (we chose Imipramine)
a treated group that receives the product being tested.
The products under investigation are administered intraperitoneally at 30 minutes or 2 hours before intraperitoneal injection of reserpine in a dosage of 5 mg/kg, so as to study their activity as a function of time.
The degree of ptosis for each eye and each animal is observed every 30 minutes for 4 to 5 hours, using RUBIN's score method. The activity of the product is determined by comparison with the result obtained with the treated control group. The inhibition of blepharospasm is recorded from 0 to +++.

central nervous system = assay: Activity on the central nervous system (overall conclusion); set-up: species or system mice; conditions: mouse, in vivo
From the text: as §2

| SMILES | LD50 [1] [mg/kg] | change in vivo at 200 mg/kg [2] [%] | Blepharospasm (inhibition) ([3]; 200 mg/kg IP) | further results |
| --- | --- | --- | --- | --- |
| CN(C)CC1(C)CCCC(=Cc2ccc3c(c2)OCO3)C1O (centres unmarked) [compound 1349] | 100 | – | – | change in vivo at 10 mg/kg [2]: 10% |
| O=C1C(=Cc2ccc3c(c2)OCO3)Cc2ccccc21 [compound 1292] | – | 62 | 0 | DL0 (IP) (mice): ≥ 2000 mg/kg |
| CC1CCCC(=Cc2ccc3c(c2)OCO3)C1=O (centres unmarked) [compound 993] | 2000 | 385 | 0 | – |
| COc1ccc(C=C2CCCC(C)C2=O)cc1OC (centres unmarked) [compound 1266] | 700 | – | – | change in vivo at 70 mg/kg ([2]; 70 mg/kg IP): 0%; Blepharospasm (inhibition) ([3]; 70 mg/kg IP): 0 |
| CC1CC(=Cc2ccc3c(c2)OCO3)C(=O)C(=Cc2ccc3c(c2)OCO3)C1 (centres unmarked) [compound 1059] | – | 0 | 0 | DL0 (IP) (mice): ≥ 2000 mg/kg |
| O=C1CCCC1=Cc1ccc2c(c1)OCO2 [compound 1386] | 1300 | – | – | change in vivo at 130 mg/kg ([2]; 130 mg/kg IP): 190%; Blepharospasm (inhibition) ([3]; 130 mg/kg IP): 0 |
| OC1C(=Cc2ccc3c(c2)OCO3)CCCC1CN1CCOCC1 (centres unmarked) [compound 1347] | 1000 | – | – | change in vivo at 100 mg/kg [2]: 60% |
| CC1CCC(O)C(=Cc2ccc3c(c2)OCO3)C1 (centres unmarked) [compound 1446] | 1500 | – | – | – |
| O=C1C(=Cc2ccc3c(c2)OCO3)CCc2ccccc21 [compound 1293] | – | 30 | 0 | DL0 (IP) (mice): ≥ 2000 mg/kg |
| COc1cc(C=C2CCCC(C)C2O)cc(OC)c1OC (centres unmarked) [compound 1269] | 1100 | – | – | change in vivo at 110 mg/kg ([2]; 110 mg/kg IP): 66%; Blepharospasm (inhibition) ([3]; 110 mg/kg IP): 0 |
| CC1CCC(=O)C(=Cc2ccc3c(c2)OCO3)C1 (centres unmarked) [compound 994] | 2000 | 103 | 0 | – |
| CC1CCCC(=Cc2cc3c(cc2Cl)OCO3)C1=O (centres unmarked) [compound 1274] | – | 99 | – | DL0 (IP) (mice): ≥ 2000 mg/kg |
| OC1CCCC1=Cc1ccc2c(c1)OCO2 (centres unmarked) [compound 1387] | 100 | – | – | change in vivo at 10 mg/kg [2]: 40%; Blepharospasm (inhibition) ([3]; 10 mg/kg IP): 0 |
| OC1C(=Cc2ccc3c(c2)OCO3)CCc2ccccc21 (centres unmarked) [compound 1388] | – | 10 | 0 | DL0 (IP) (mice): > 200 mg/kg |
| COc1ccc(C=C2CCCC(C)C2O)c(OC)c1OC (centres unmarked) [compound 1271] | 500 | – | – | change in vivo at 50 mg/kg ([2]; 50 mg/kg IP): 0%; Blepharospasm (inhibition) ([3]; 50 mg/kg IP): 0 |
| COc1ccc(C=C2CCCC(C)C2=O)c(OC)c1OC (centres unmarked) [compound 1270] | 1000 | – | – | – |
| CN1CCN(CC2(C)CCCC(=Cc3ccc4c(c3)OCO4)C2=O)CC1 (centres unmarked) [compound 1352] | 150 | – | – | change in vivo at 15 mg/kg ([2]; 15 mg/kg IP): 0%; Blepharospasm (inhibition) ([3]; 15 mg/kg IP): 0 |
| CC1CCCC(=Cc2ccc3c(c2)OCO3)C1O (centres unmarked) [Code No. 1040, 2-(3,4-methylenedioxybenzylidene)-6-methylcyclohexanol or 2-piperonylidene-6-methylcyclohexanol] | 1000 | – | – | change in vivo at 100 mg/kg [2]: 174%; usefulness as an anti-depressant (central nervous system): particularly useful as an anti-depressant |
| COc1ccc(C=C2CCCC(C)C2O)cc1OC (centres unmarked) [compound 1267] | 900 | – | – | – |
| CC1CCCC(=Cc2cc3c(cc2Cl)OCO3)C1O (centres unmarked) [compound 1275] | 2000 | 56 | 0 | – |
| CN1CC(=Cc2ccc3c(c2)OCO3)C(O)C(=Cc2ccc3c(c2)OCO3)C1 (centres unmarked) [compound 1324] | – | 83 | 0 | DL0 (IP) (mice): ≥ 2000 mg/kg |
| OC1C(=Cc2ccc3c(c2)OCO3)Cc2ccccc21 (centres unmarked) [compound 1322] | 1500 | – | – | change in vivo at 150 mg/kg ([2]; 150 mg/kg IP): 116%; Blepharospasm (inhibition) ([3]; 150 mg/kg IP): 0 |
| COc1cc(C=C2CCCC(C)C2=O)cc(OC)c1OC (centres unmarked) [compound 1268] | 1000 | – | – | change in vivo at 100 mg/kg [2]: 60% |
